# From patent publication US20160200684A2, “Pharmaceutical Compositions for the Treatment of CFTR-Mediated Disorders” (Vertex Pharmaceuticals Incorporated, priority 2012, published 2016)
# Read-outs that look alike come from different tables or passages of the source.
# Legend:
# Type in all cases: physicochemical
# [1] = Stability of Compound 2 aqueous suspension in 0.5% methylcellulose; details: room temperature; methylcellulose formulation
# Procedure: A 100 mL stock solution of 0.5% by weight methylcellulose was prepared by stirring 0.5 g of methylcellulose with 99.5 g of purified water until completely dissolved (approximately 24 hours). The appropriate amount of Compound 2 HCl salt based on free base was weighed and transferred to a scintillation vial. The desired amount of 0.5% methylcellulose stock solution for making a 6 mg/mL based on free base (6.48 mg/mL based on HCl salt) was transferred into the vial and sonicated for 20 minutes and homogenized for approximately 5 minutes.
# [2] = Stability of Compound 2 aqueous suspension in 0.5% methylcellulose/0.5% polysorbate 80; details: for conversion of salt form in suspension vehicle: at T(0), XRPD, 1H NMR
# Procedure: Methylcellulose (0.5 g) was combined with 99.0 g of purified water in a beaker and stirred in a 60-70° C. water bath for 30′-1 hr. The solution was stirred in a 0° C. ice/water bath for another 30′ or until clear. Polysorbate 80 (0.5 g) was added and stirring at room temperature followed for 30′-1 hr or until a clear solution was obtained.
# The appropriate amount of Compound 2 HCl salt based on free base was weighed and transferred to a scintillation vial. The desired amount of 0.5% methylcellulose and 0.5% polysorbate 80 stock solution for making a 6 mg/mL based on free base (6.48 mg/mL based on HCl salt) was transferred into the vial and sonicated for 20 minutes with alternate stirring for 1-2 minutes. The solution was homogenized for approximately 1-2 minutes.
# [3] = Solubility of Compound 3 in solvents
# [4] = 0.5% methylcellulose/0.5% polysorbate 80
smiles,measurement,setting,value
"Cc1ccc(NC(=O)C2(c3ccc4c(c3)OC(F)(F)O4)CC2)nc1-c1cccc(C(=O)O)c1 [Compound 2 Form I, 3-(6-(1-(2,2-difluorobenzo[d][1,3]dioxol-5-yl)cyclopropanecarboxamido)-3-methylpyridin-2-yl)benzoic acid]","physically and chemically stable, no sign of chemical degradation",[1],at least 24 hrs
same,"chemically stable, no sign of chemical degradation","[2]; room temperature, 0.5% methylcellulose/0.5% polysorbate 80 formulation vehicle",at least 24 hrs
"Cc1ccc(NC(=O)C2(c3ccc4c(c3)OC(F)(F)O4)CC2)nc1-c1cccc(C(=O)O)c1.Cl [Compound 2 HCl salt, 3-(6-(1-(2,2-Difluorobenzo [d][1,3]dioxol-5-yl)cyclopropanecarboxamido)-3-methylpyridin-2-yl)benzoic acid.HCl salt]",physical stability of suspension,[2]; [4],not physically stable
same,conversion of salt form in suspension vehicle,[2]; [4],quickly converted to Compound 2 Form I
same,conversion of salt form in suspension vehicle,"[2]; 0.5% methylcellulose/0.5% polysorbate 80, listed as HCl salt",quickly converted to Compound 2 Form I at T(0)
"CC(C)(CO)c1cc2cc(NC(=O)C3(c4ccc5c(c4)OC(F)(F)O5)CC3)c(F)cc2n1C[C@H](O)CO [Compound 3, (S)-1-(2,2-difluorobenzo[d][1,3]dioxol-5-yl)-N-(1-(2,3-dihydroxypropyl)-6-fluoro-2-(1-hydroxy-2-methylpropan-2-yl)-1H-indol-5-yl)cyclopropanecarboxamide]",solubility,"[3]; first solvent: ethyl acetate, ethanol, isopropyl alcohol, or acetone",greater than 20 mg/mL
same,solubility,"[3]; organic solvent or mixture, acetonitrile, methanol, ethanol, isopropyl alcohol, acetone, read-out: solubility",> 20 mg/mL
same,solubility,"[3]; second solvent: heptane or water, water, read-out: solubility (poor)",< 1 mg/mL
